One block for each molecule: values may come before it.
Experiments:
p38α = target: T1, p38α (Homo sapiens, UniProt Q16539, C119S/C162S/F327L/Y35C); assay: Endpoint fluorescence binding measurements with acrylodan-labelled p38α (glycine-rich loop / P-loop labelled, Y35C); settings: fluorescence response of acrylodan-labelled p38α
T1 construct: His-tag (N, cleaved yes); made in house; host or cells: E. coli BL21(DE3)
Text: For acrylodan-labelled p38α, ratiometric fluorescence values (R=Iλ512/Iλ475) enabled reliable binding curves of detected compounds to be plotted, allowing for direct determination of the Kd of ligand binding. It should be noted that binding modes of detected molecules can initially be assessed in HTS formats by measuring plates from primary and/or secondary screens at different time points. Compounds that change the maximum ratiometric signal or Kd over time are likely to be Type II/III inhibitors. Alternatively, kinetics of the association (kon) and dissociation (koff) of selected compounds can be determined using cuvettes. To determine kon, a mini stir bar was placed in the bottom of each cuvette to ensure rapid mixing as inhibitor was delivered through the injection port located above the cuvette. […] Nearly instantaneous binding kinetics (<5 s) are characteristic of Type I inhibitors, while slower kinetics (>10 s) indicate the slower binding of Type II or Type III inhibitors to the DFG-out conformation. Following binding, koff was determined by adding a 10-fold excess of unlabelled kinase to shift the binding equilibrium away from the labelled kinase. Addition of excess unlabelled kinase causes the inhibitor to redistribute and dissociate from acrylodan-labelled p38α, resulting in a recovery of the fluorescence signal.

MKK7 = target: T2, MKK7 (Homo sapiens, UniProt O14733, C202S/C260S/C280S); assay: Real-time and endpoint fluorescence measurements with glycine-rich loop acrylodan-labelled MKK7 kinase domain; type: binding
T2 sequence (O14733 101-408 C202S/C260S/C280S): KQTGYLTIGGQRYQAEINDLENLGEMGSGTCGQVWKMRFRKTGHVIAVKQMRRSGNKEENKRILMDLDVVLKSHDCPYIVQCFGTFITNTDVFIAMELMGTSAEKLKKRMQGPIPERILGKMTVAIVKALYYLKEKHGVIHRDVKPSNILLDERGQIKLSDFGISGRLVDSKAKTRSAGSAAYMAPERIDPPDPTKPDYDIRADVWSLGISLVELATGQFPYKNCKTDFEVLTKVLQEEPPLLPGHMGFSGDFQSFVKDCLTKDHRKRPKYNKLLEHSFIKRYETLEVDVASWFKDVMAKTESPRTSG
Method: FIG. 8. Real-time and endpoint fluorescence measurements of a Type II and Type I ligands using glycine-rich loop labelled MKK7. […] Real-time kinetic measurements and detection of binding and dissociation of K252a.
Therefore, the Kd of a Type I inhibitor (K252a) to P-loop labelled MKK7 was measured. […] FIG. 8C highlights the real-time kinetic measurements and detection of binding and dissociation of K252a.

T1 sequence (Q16539 whole entry Y35C/C119S/C162S/F327L): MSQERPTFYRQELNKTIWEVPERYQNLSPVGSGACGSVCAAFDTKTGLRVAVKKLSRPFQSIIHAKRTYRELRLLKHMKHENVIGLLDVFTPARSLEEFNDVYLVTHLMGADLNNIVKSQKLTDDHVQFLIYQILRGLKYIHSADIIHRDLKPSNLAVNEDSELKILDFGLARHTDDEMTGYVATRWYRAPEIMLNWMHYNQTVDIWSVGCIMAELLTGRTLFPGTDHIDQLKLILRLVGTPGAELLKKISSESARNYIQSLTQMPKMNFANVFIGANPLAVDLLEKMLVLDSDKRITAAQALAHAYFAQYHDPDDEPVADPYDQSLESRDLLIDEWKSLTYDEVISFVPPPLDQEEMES

- detection of ligand binding by the P-loop labelled p38α assay (p38α): detected
SMILES: NC(=O)c1c(OCc2c(F)cc(Br)cc2F)nsc1NC(=O)NCCCCN1CCCC1 [CP547632]

SMILES: COC(=O)[C@@]1(O)C[C@H]2O[C@]1(C)n1c3ccccc3c3c4c(c5c6ccccc6n2c5c31)C(=O)NC4 [K252a]
- Kd (MKK7): 0.038 µM
- kinetics of binding and dissociation (MKK7; real-time measurements, P-loop labelled MKK7): fast

- detection of ligand binding by P-loop labelled MKK7 (MKK7; negative controls, up to 10 μM): not detected up to 10 uM
SMILES: CNC(=O)c1cc(Oc2ccc(NC(=O)Nc3ccc(Cl)c(C(F)(F)F)c3)cc2)ccn1 [sorafenib]

Source: US20120107836A1, “DEVELOPMENT OF FLUORESCENTLY P-LOOP LABELLED KINASES FOR SCREENING OF INHIBITORS” (priority 2009, published 2012)
